# From patent publication US10912843B2, “Endoplasmic reticulum-targeting nanovehicles and methods for use thereof” (National Cheng Kung University, priority 2018, dated 2021)
# Legend:
# [1] = test system: differentiated HL-60 cells; assay: Curcumin-induced extracellular calcium influx; assay type: cell-based
# Description: Extracellular calcium influx, which is triggered by the depletion of ER calcium stores, was measured in cells treated with free curcumin or treated with curcumin-loaded nanoparticles as follows. Differentiated HL-60 cells were pretreated with free curcumin (10 μM), curcumin-loaded PLGA nanoparticles (0.5 μM), and curcumin-loaded ER-targeted PLGA nanoparticles (0.5 μM) at 37° C. overnight. Cells were washed with calcium-free HBSS, seeded on poly-lysine coated 8-well slides (ibidi, Planegg, Germany) at a density of 1×10^6 cells/ml, and incubated at 37° C. for 30 min. Cells were labeled with 2 μM of the calcium-sensitive fluorescent dye Fluo-4 AM and 1 μM of ER-tracker at 37° C. for 30 min. Labeled cells were treated with 1.25 mM CaCl2. Fluorescence images were captured by confocal microscopy every 10 s for 5 min. following the addition of CaCl2. Fluorescence intensities in these images were analyzed using ImageJ software. The change in fluorescence intensity over time divided by the baseline fluorescence intensity prior to calcium addition (ΔF/FO) was plotted versus time, and the rate of calcium level increase (ΔF/F/s) was derived from that plot. The overall calcium flux was calculated as the area under the curve (AUC) of a ΔF/F/s versus time curve.
# H338Y-gp91^phox protein = assay: Expression and maturation of H338Y-gp91^phox protein in neutrophils of treated transgenic mice (Western blot); assay type: in vivo, mouse; conditions: Cybb^C1024T transgenic Cybb^-/- mice, treated 24 hours, 20 mg/kg of curcumin
# Description: The expression of H338Y-gp91^phox protein in neutrophils from the Cybb^C1024T transgenic Cybb^−/− mice was examined by SDS-PAGE and Western blotting with an anti-gp91^phox antibody. To isolate neutrophils, mice were injected intraperitoneally with 3 ml of 3% thioglycollate to elicit peritoneal neutrophils. Four hours later, the mice were sacrificed, and the peritoneal cavity was washed twice with 5 ml of Hanks buffered salt solution (HBSS) with 2 mM ethylene glycol tetraacetic acid to collect the elicited peritoneal neutrophils. Peritoneal neutrophils were then washed with PBS before use.
# Curcumin-loaded PLGA nanoparticles with or without the ER-targeting KDEL peptide were tested for their effects on the expression and maturation of H338Y-gp91^phox protein in Cybb^C1024T transgenic Cybb^−/− mice. Briefly, mice were untreated or treated separately with free curcumin, curcumin-loaded PLGA nanoparticles, or curcumin-loaded ER-targeted PLGA nanoparticles for 24 hours in amounts corresponding to 20 mg/kg of curcumin. Neutrophils from the mice were elicited, isolated, and analyzed for expression of H338Y-gp91^phox protein as described above.
# Statistical analyses were carried out with Prism software (GraphPad Software). […]
# [2] = test system: differentiated HL-60 cells; assay: ER stress response and caspase-3 cleavage (Western blot); assay type: cell-based; conditions: 10 μM
# Description: To determine whether the activation of the ER stress response is involved in curcumin-induced apoptosis, the levels of ER stress markers Bip and phosphorylated ERK, as well as the level of cleaved Caspase-3, a marker of apoptosis, were quantified by Western blot analysis of cells treated with 10 μM curcumin or encapsulated curcumin.
# Briefly, treated cells were lysed in 100 μl of lysis buffer (1% Triton-X100, 150 mM NaCl, 10 mM Tris base, 1 mM EDTA, 1 mM EGTA, 50×protease inhibitor cocktail, pH 7.4). Lysed samples were subjected to 10% SDS-PAGE and transferred to membranes for Western Blot analysis using antibodies that bind to Bip, phospho-ERK, total ERK, cleaved caspase-3, and β-actin. Binding of these antibodies was visualized using commercially available enhanced chemiluminescence reagents. Chemiluminescent signals were quantified from images using ImageJ software.
# [3] = test system: differentiated HL-60 cells; assay: Mitochondrial membrane potential (TMRM, flow cytometry); assay type: cell-based; conditions: 10 μM, 24 hours; FIG. 5A
# Description: As mentioned above, it has been shown that curcumin is cytotoxic, as it induces ER stress and apoptosis. The cytotoxicity of free curcumin was compared to that of encapsulated curcumin by measuring in treated cells mitochondrial membrane potential (one measure of cytotoxicity), apoptotic markers, and ER stress-related protein expression.
# (§1) Differentiated HL-60 cells were treated with 0.5 μM or 10 μM free curcumin, curcumin-loaded PLGA nanoparticles, or curcumin-loaded ER-targeted PLGA nanoparticles for 24 hours. Treated cells were labeled with 250 nM of the mitochondrial membrane potential indicator dye tetramethylrhodamine (TMRM) at 37° C. for 30 min. TMRM-labeled cells were analyzed by flow cytometry and their mitochondrial membrane potentials quantified using the Flowing Software 2 software package.
# [4] = test system: human peripheral blood hematopoietic cells (HSCs); assay: Erythroblast differentiation (CD71 / CD235a flow cytometry); assay type: cell-based; conditions: FIG. 6A
# Description: Erythroblast differentiation was measured in human peripheral blood hematopoietic cells (HSCs) treated with free curcumin or treated with curcumin-loaded nanoparticles as follows. Human CD34^+ HSCs were cultured in Iscove's modified Dulbecco medium containing 15% heat-inactivated fetal calf serum, 2 U/ml of recombinant human erythropoietin, 20 ng/ml of stem cell factor, and 10 ng/ml of interleukin-3 (IL-3). On day 4, the medium was replaced with fresh medium without IL-3 and the HSCs were cultured for another 5 days. The maturation of erythroblasts was analyzed by detecting the surface expression of CD71 and CD235a with flow cytometry.
# [5] = test system: differentiated HL-60 cells; assay: Curcumin-induced intracellular calcium release (Fluo-4AM); assay type: cell-based; conditions: 10 μM
# Description: SERCA inhibitors such as curcumin cause an increase in intracellular calcium release from the ER. The ability of curcumin to induce calcium release was compared to that of PLGA nanoparticle-encapsulated curcumin. Differentiated HL-60 cells were seeded on 8-well slides in calcium-free medium and loaded with the intracellular calcium-sensitive indicator dye Fluo-4AM. Cells were treated with thapsigargin (positive control) or treated with 0.5, 1, or 10 μM curcumin, curcumin-loaded PLGA nanoparticles, or curcumin-loaded ER-targeted PLGA nanoparticles. Fluorescence intensity over time was measured in treated cells by confocal microscopy and analyzed using ImageJ software. The change in fluorescence intensity over time divided by the baseline fluorescence intensity prior to calcium addition (ΔF/FO) was plotted versus time.
# [6] = test system: differentiated HL-60 cells; assay: Detection of apoptotic cells (Annexin V / 7-AAD); assay type: cell-based; conditions: 10 μM, 24 hours; FIG. 5B
# Description: as §1
# Cells treated as above with free or encapsulated curcumin were washed with ice-cold phosphate-buffered saline and stained with phycoerythrin-Annexin V and 7 amino-actinomycin D (7-AAD) at room temperature for 15 min. Annexin V binds to the surface of cells undergoing apoptosis, and 7-AAD only enters and stains apoptotic cells. Stained cells were subjected to flow cytometry analysis and the results analyzed using the Flowing Software 2 analysis package.
ERK phosphorylation compared with untreated control cells ([2]; FIG. 5C center panel),Bip expression compared with untreated control cells ([2]; FIG. 5C left panel),mitochondrial membrane potential compared with control untreated cells [3],SMILES,"time to calcium influx after addition ([1]; positive control, 1.25 mM extracellular calcium) [s]",expression of glycosylated H338Y-gp91^phox as compared to untreated mice (H338Y-gp91^phox protein),"calcium influx rate 20 s after treatment, compared with 0.5 μM curcumin-loaded nanoparticles ([1]; 10 μM)",percentages of more mature CD71^low CD235^high cells in treated HSCs [4],"rate of intracellular calcium increase, compared with lower concentrations of free curcumin [5]","level of calcium release, compared with 0.5 μM and 1 μM free curcumin ([5]; calcium-free medium, 40, 50 and 60 s after treatment)",number of apoptotic cells (Annexin V binding) [6]
–,–,–,"C/C=C(/C)C(=O)O[C@H]1C(C)=C2[C@H]([C@@H]1OC(=O)CCCCCCC)[C@@](C)(OC(C)=O)C[C@H](OC(=O)CCC)[C@@]1(O)[C@H]2OC(=O)[C@@]1(C)O [Thapsigargin, thapsigargin]",≤ 10,–,–,–,–,–,–
increased,increased,significant reduction,"COc1cc(/C=C/C(=O)CC(=O)/C=C/c2ccc(O)c(OC)c2)ccc1O [free curcumin, curcumin]",–,did not show any change,significantly higher,significantly enhanced,highest,significantly higher,significant increase
